{"source": "paper PMC9655899", "about": "“Inhibition of Netosis with PAD Inhibitor Attenuates Endotoxin Shock Induced Systemic Inflammation” (International Journal of Molecular Sciences, 2022)", "assay_type_in_all_cases": "biochemical", "key": {"PAD2": {"molecular_target": "T1, PAD2 (Homo sapiens, UniProt Q9Y2J8)", "T1 construct": "gene PADI2", "T1 sequence (Q9Y2J8 whole entry)": "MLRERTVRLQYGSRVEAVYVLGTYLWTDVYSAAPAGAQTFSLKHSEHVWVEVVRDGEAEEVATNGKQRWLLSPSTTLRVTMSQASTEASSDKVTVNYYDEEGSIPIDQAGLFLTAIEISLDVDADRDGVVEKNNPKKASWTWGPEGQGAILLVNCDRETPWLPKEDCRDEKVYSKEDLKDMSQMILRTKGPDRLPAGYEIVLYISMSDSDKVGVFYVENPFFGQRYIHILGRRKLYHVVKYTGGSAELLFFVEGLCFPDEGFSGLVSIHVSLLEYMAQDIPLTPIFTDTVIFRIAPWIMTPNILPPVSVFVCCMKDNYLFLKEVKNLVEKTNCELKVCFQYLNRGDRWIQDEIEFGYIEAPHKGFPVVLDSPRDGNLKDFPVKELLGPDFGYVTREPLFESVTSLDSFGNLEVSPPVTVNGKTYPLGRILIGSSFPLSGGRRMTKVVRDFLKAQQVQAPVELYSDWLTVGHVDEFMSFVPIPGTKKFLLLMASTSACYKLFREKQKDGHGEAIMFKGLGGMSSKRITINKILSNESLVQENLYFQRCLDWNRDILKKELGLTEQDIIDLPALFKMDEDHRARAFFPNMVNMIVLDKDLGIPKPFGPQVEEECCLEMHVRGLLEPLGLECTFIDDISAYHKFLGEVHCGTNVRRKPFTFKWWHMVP", "experiment": "PAD enzyme activity assay with purchased human PAD2 (BAEE colorimetric assay described for PAD4)"}, "mouse PAD4": {"molecular_target": "T2, mouse PAD4 (Mus musculus, UniProt Q9Z183)", "T2 construct": "gene Padi4", "T2 sequence (Q9Z183 whole entry)": "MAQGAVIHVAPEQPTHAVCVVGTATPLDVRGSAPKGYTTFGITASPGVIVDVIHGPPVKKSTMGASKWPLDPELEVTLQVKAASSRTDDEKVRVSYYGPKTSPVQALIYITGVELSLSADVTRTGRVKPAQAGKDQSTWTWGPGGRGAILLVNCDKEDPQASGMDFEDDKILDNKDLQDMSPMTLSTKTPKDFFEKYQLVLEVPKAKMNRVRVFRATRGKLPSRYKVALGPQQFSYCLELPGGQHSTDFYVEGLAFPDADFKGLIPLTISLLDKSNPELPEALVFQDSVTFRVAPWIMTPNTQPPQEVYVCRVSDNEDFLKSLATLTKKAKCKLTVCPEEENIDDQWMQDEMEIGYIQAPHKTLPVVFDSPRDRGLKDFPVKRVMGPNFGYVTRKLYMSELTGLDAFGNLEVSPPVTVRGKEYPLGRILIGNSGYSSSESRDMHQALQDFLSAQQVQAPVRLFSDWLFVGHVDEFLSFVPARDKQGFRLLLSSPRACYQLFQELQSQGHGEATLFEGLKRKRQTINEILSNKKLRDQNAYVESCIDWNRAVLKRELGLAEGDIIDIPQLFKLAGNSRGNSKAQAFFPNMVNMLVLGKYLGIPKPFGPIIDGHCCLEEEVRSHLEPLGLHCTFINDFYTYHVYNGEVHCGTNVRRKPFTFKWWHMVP", "experiment": "BAEE citrullination colorimetric assay (diacetyl monoxime, A465) with purchased enzyme, […] min preincubation"}, "human PAD4": {"molecular_target": "T3, human PAD4 (Homo sapiens, UniProt Q9UM07)", "T3 construct": "gene PADI4", "T3 sequence (Q9UM07 whole entry)": "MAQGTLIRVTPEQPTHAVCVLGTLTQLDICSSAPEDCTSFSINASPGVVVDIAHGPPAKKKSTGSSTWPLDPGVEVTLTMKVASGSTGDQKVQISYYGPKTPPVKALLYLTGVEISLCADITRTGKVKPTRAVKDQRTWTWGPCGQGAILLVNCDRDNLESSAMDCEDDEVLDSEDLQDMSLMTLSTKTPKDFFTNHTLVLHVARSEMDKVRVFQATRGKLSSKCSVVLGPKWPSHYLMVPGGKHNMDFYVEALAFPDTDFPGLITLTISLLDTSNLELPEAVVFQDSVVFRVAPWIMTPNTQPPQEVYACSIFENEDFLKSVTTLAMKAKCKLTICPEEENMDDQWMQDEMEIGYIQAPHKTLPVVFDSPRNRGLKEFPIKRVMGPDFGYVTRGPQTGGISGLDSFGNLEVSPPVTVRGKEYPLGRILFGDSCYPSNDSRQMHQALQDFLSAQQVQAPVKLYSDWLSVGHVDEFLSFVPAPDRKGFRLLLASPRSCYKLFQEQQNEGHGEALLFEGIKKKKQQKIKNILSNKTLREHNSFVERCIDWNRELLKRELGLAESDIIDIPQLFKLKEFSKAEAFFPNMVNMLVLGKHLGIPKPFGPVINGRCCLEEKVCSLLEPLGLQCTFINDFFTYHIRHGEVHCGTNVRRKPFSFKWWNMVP", "experiment": "BAEE citrullination colorimetric assay (diacetyl monoxime, A465) with purchased enzyme, […] min preincubation"}, "PAD3": {"molecular_target": "T4, PAD3 (Homo sapiens, UniProt Q9ULW8)", "T4 construct": "gene PADI3", "T4 sequence (Q9ULW8 1-664)": "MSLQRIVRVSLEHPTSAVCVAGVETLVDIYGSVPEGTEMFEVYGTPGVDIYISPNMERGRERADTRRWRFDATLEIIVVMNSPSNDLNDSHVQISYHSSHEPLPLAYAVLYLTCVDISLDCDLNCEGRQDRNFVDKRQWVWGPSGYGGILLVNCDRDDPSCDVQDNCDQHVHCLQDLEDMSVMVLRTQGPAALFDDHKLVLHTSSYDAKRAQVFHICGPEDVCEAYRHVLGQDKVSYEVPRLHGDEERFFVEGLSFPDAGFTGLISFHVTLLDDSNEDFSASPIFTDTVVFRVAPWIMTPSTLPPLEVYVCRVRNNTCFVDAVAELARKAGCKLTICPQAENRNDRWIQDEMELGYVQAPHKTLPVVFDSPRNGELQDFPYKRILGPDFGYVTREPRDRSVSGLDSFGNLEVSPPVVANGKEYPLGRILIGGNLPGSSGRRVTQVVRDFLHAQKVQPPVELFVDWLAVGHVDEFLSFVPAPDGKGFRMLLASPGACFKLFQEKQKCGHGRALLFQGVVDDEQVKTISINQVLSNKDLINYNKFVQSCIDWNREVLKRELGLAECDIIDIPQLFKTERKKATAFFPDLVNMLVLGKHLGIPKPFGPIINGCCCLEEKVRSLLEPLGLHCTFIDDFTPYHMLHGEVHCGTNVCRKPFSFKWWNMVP", "experiment": "PAD enzyme activity assay with purchased human PAD3 (BAEE colorimetric assay described for PAD4)"}, "PAD1": {"molecular_target": "T5, PAD1 (Homo sapiens, UniProt Q9ULC6)", "T5 construct": "gene PADI1", "T5 sequence (Q9ULC6 1-663)": "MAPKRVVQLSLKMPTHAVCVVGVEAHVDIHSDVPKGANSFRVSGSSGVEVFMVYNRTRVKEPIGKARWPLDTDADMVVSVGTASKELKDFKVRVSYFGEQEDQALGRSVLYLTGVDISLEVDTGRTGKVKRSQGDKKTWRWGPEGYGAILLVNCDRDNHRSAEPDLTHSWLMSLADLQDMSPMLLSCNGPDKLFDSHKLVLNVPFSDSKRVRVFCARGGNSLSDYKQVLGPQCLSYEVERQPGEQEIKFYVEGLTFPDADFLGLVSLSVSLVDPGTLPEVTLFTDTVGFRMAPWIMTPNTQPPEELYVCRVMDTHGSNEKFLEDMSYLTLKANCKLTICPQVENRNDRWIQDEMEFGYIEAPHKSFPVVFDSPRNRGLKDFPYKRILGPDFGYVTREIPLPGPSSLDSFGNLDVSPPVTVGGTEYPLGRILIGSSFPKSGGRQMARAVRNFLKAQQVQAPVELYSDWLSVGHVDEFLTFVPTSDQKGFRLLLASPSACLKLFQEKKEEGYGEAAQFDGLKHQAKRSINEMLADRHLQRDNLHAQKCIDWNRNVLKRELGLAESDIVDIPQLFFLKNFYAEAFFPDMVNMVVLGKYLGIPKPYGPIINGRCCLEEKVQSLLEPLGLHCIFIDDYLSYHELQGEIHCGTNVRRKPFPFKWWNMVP", "experiment": "PAD enzyme activity assay with purchased human PAD1 (BAEE colorimetric assay described for PAD4)"}}, "data": [{"smiles": "CN(C)c1ccc2cc(C(=O)N[C@@H](CCCNC(=N)CCl)C(=O)NCc3ccccc3)ccc2c1", "note": "[YW3-56]", "values": [{"measurement": "IC50", "setting": "PAD2", "result": 6340, "unit": "nM"}, {"measurement": "IC50", "setting": "mouse PAD4", "result": 2540, "unit": "nM"}, {"measurement": "IC50", "setting": "human PAD4", "result": 1190, "unit": "nM"}, {"measurement": "IC50", "setting": "PAD3", "result": 53400, "unit": "nM"}, {"measurement": "IC50", "setting": "PAD1", "result": 1450, "unit": "nM"}]}]}
